One data set relates to diabetic NOD mice. As to the kind of experiment: Plasma glucagon in NOD mice after treatment. The class given is in vivo, mouse. Set-up: Plasma glucagon: unit not given beside the values. The method, then:
Terminal blood was collected into microfuge tubes containing K2-EDTA (supplemented by 45 mM phenylmethylsulphonyl fluoride and 0.77 μM aprotinin) through cardiac puncture. Plasma was separated by centrifugation (2,000g for 10 minutes at 4°C) and kept at –80°C until analysis. Plasma samples with hemolysis were excluded from the study. […] Values of BUN, creatinine, ALB, ALT, and AST were determined by a Roche Cobas C501 Autoanalyzer as performed by the Washington University Diabetes Research Center Translational Diagnostics Core. Reference intervals of blood chemistry parameters for inbred NOD mice were extracted from the Mouse Phenome Database (https://phenome.jax.org/).

Data set [1] has as its system murine dispersed islet cells. The data set can be described thus: Insulin secretion from murine dispersed islet cells. Type of data set: cell-based, mouse. To be noted: for Relative secretion of insulin: one value per mouse. The protocol:
Pancreata of nondiabetic C57BL/6J mice were digested using collagenase P (Roche Diagnostics, catalog 11213873001), and islets were manually picked up using a stereomicroscope (ZEISS Stemi 305). […] Isolated mouse islets or provided human islets were dispersed as described ([28]). Briefly, 100–120 islets were washed 2 times using modified HBSS, then dispersed in 600 μL Accutase (Innovative Cell Technologies, catalog AT-104) by gently pipetting up and down for 7 minutes at 37°C. […] Following refreshing of KRBH, cells were dispensed in 8 microfuge tubes (2,000 cells/tube) and treated with WCDD301, preclustered Ephrin-A5 Fc, or preclustered Fc in the presence or absence of the competitive inhibitor of EphA4 receptor, rhyncophylline ([60]) (MilliporeSigma, catalog SML2345). In the presence or absence of these effectors, secretion assay was performed sequentially as shown in Supplemental Table 5. […] Preclustering of Ephrin-A5 Fc was done by mixing Ephrin-A5 Fc or Fc alone (BioLegend, catalog 790102) with anti-Fc antibody (Invitrogen, catalog A16086) (1:10 molar ratio) 20 minutes before treatment ([62]). […] Shedding of cleaved EphA4 was measured from the cell culture medium. Experiments were performed by dispersion of 200 islets, and EphA4 levels in media were measured by EphA4 ELISA (ABclonal, catalog RK06572).

In another data set the target is T1, EphA4 receptor (Mus musculus, UniProt Q03137).
T1 construct: purchased R&D Systems 641-A4-200
As to the kind of experiment: ELISA: binding affinity (Ki) of WCDD301 for EphA4 via bound Ephrin-A5 Fc. Also noted: Bound Ephrin (0.1 µM-WCDD301) / Bound Ephrin, raw data: unit not given here. To be noted: for Bound Ephrin (0.1 µM-WCDD301): replicates, Figure 1B. The protocol: Wells of the protein A–coated microplate (Pierce, catalog 15132) were washed using 200 μL of binding buffer (PBS supplemented by 0.01% Tween 20). Recombinant mouse EphA4 Fc chimera protein (R&D Systems, catalog 641-A4-200) was reconstituted in 1× PBS (Genesee, catalog 25-507XB, pH 7.2 ± 0.1), diluted to 3 μg/mL using binding buffer, dispensed (100 μL) in each well, and rocked on a belly dancer shaker (3 hours at room temperature, RT). Following 3 washes in the binding buffer, blocking was done using blocking buffer (5% BSA in binding buffer) for 3 hours at RT. Then, after 5 washes, the reconstituted recombinant mouse Ephrin-A5 Fc (R&D Systems, catalog 7396-EA-050) was added (100 μL) into each well and rocked for 2.5 hours on the shaker (Ephrin-A5 Fc concentrations were used as described in the Results section). After 7 washes using binding buffer, alkaline phosphatase–conjugated antibody against Ephrin-A5 was diluted (1:1,000) in the binding buffer plus 2% BSA, added to each well, and incubated at 4°C, overnight. Conjugation of the anti-EFNA5 antibody (Abnova, catalog H00001946-M02; 0.5 mg/mL; target sequence 114–203) was done using Abcam conjugation kit (catalog ab102850) based on the manufacturer’s instruction. After washing 7 times, p-nitrophenyl phosphate tablet (MilliporeSigma, catalog N1891) was reconstituted in 5 mL of PBS and added to each well (100 μL). Following 1 hour shaking at RT in the dark, reaction was stopped by adding 100 μL of 3N NaOH. OD was read at 405 nm within 5 minutes using the microplate reader (Agilent BioTek Cytation 5).
As a control, Fc fragment (BioLegend, catalog 790102) was incubated and used for normalization of data. […] Then, Ki was determined via an approach called finding Ki without global fitting ([58]) by using the following formula: […]
This approach provided a Km value for […] and an estimate for its binding affinity, Ki. To further verify this finding, experiments were designed in the context of 8 nM Ephrin-A5 to determine bound levels of Ephrin-A5 in the presence of WCDD301 (0, 0.1, 0.4, 0.8, and 1.6 μM). Data were normalized and fit by nonlinear regression in GraphPad Prism software version 4 to determine IC50. Then, by using the Cheng-Prusoff equation

Data set [2] deals with primary mouse hepatocytes. The data set can be described thus: Glucose output from primary mouse hepatocytes. Type of data set: cell-based. The method, then:
Primary hepatocyte culture was performed following previous publications ([63], [64]). Briefly, livers were extracted from C57BL/6J (n = 5), rinsed in HBSS, and minced. The minced tissue was treated with collagenase P solution (9 μg/mL) neutralized by DMEM containing 10% FBS. Following settling of undigested tissue, the supernatant was collected and centrifuged at 490g for 1 minute. The pellet was treated with red blood cell lysis buffer (8.26 g NH4Cl, 1 g NaHCO3, 0.037 g Na2EDTA in 1,000 mL of distilled water) for 3 minutes, diluted with HBSS containing 6% FBS, and centrifuged at 490g for 1 minute. The resulting pellet was washed 2 times using HBSS containing 6% FBS (290g, 1 minute, and 190g, 1 minute) and resuspended in HBSS containing 2% FBS. The procedure was repeated 2 additional times on the undigested tissue. The collected suspension was sequentially filtered through a 500 μm Steel Basket-Strainer (pluriSelect) and Falcon 100 µm Cell Strainer (Corning). After centrifugation (190g, 1 minute), the pellet was resuspended in DMEM (containing 10% FBS, 100 U/mL penicillin, and 100 μg/mL streptomycin), seeded in a 48-well cell culture plate (7.5 × 10^5 cells/ well), and incubated in a cell culture incubator, overnight. Cell viability and attachment were determined by trypan blue staining.

Setting [3] is: WCDD301 0.1 µM, 8 nM Ephrin-A5, Figure 1C.

SMILES strings stand for the structures. Values joined by “and” are separate entries in the source; they are usually repeats but may differ in a detail not shown here. Identical values can stand only once. Like-named read-outs stand apart in the source and are kept apart here.

T1 sequence (Q03137 with tags, fused parts or gaps limits assumed): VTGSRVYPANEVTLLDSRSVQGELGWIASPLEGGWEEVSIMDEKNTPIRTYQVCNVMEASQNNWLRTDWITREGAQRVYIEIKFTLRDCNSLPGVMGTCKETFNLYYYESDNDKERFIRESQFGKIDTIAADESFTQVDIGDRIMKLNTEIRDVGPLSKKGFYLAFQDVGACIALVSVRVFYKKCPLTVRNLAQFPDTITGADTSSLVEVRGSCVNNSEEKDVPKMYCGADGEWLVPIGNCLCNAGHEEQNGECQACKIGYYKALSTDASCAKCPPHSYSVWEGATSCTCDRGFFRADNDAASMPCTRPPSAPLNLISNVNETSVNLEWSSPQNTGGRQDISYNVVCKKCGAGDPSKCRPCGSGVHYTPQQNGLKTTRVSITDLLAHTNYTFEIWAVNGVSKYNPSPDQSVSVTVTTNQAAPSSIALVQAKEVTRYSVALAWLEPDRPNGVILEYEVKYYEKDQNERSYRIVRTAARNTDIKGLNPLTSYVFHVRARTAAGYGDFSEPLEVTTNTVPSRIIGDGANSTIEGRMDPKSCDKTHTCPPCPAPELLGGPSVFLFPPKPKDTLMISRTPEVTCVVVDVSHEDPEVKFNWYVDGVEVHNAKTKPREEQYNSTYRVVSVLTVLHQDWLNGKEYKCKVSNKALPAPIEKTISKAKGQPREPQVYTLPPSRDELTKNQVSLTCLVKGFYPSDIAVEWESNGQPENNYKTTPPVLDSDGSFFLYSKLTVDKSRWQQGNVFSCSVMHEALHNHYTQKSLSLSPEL

With `CC(=O)OCC(N)(COC(C)=O)COC(C)=O` [WCDD301, 2-(acetoxymethyl)-2-aminopropane-1,3-diyl diacetate], the Plasma glucagon in the data set on diabetic NOD mice (WCDD301-treated diabetic NOD mice, per mouse, Figure 6B) is 22.15 and 11 and 44 and 25 and 47. Also, the “Effect on plasma glucagon” value in the data set on diabetic NOD mice (diabetic NOD mice) is reported as “suppression of glucagon levels”. In addition, the “Relative secretion of insulin” value in data set [1] (301 (1.5 µM), Glucose (1 mM), Figure 1G) is 0.28 and 0.38 and 0.3 and 0.32 and 0.23; in data set [1] (301 (1.5 µM), Glucose (11 mM), Figure 1G), 1.22 and 1.05 and 0.8 and 0.98 and 1.49; in data set [1] (301 (3 µM), Glucose (1 mM), Figure 1G), 0.49 and 0.38 and 0.4 and 0.28 and 0.53; in data set [1] (301 (3 µM), Glucose (11 mM), Figure 1G) it was 0.67 and 1.1 and 0.98 and 1.25 and 0.63. Besides, the “Effect on insulin secretion” value in data set [1] (Figure 1G) is “without significant effects”. In addition, the “Effect on insulin secretion in presence of rhyncophylline” value in data set [1] (WCDD301 3 μM, Supplemental Figure 3) was “no significant effect on insulin secretion”. In addition, the Ki is 130 nM at EphA4 receptor (8 nM Ephrin-A5, Figure 1C, read-out: Ki via Cheng-Prusoff equation) and ≤ 130 nM at EphA4 receptor (ELISA with Ephrin-A5 Fc, read-out: Ki, binding affinity for EphA4 receptor). The same molecule had an IC50 at EphA4 receptor (8 nM Ephrin-A5, WCDD301 0-1.6 μM, Figure 1C) of 210 nM. In addition, the “Bound Ephrin (0.1 µM-WCDD301)” value is 0.08 and 0.079 and 0.05 on EphA4 receptor (EFN 2 nM); 0.057 and 0.077 and 0.06 on EphA4 receptor (EFN 4 nM); 0.119 and 0.122 and 0.09 at EphA4 receptor (EFN 8 nM); 0.141 and 0.136 and 0.1 on EphA4 receptor (EFN 16 nM); 0.235 and 0.22 and 0.2 on EphA4 receptor (EFN 32 nM); 0.301 and 0.295 and 0.32 at EphA4 receptor (EFN 64 nM). Besides, the “Bound Ephrin, normalized” value at EphA4 receptor (setting [3]) was 51.76 and 79.12. Besides, the “Bound Ephrin, raw data” value on EphA4 receptor (setting [3]) was 0.069 and 0.1; at EphA4 receptor (WCDD301 0.4 µM, 8 nM Ephrin-A5, Figure 1C) it was 0.037 and 0.06 and 0.07; on EphA4 receptor (WCDD301 0.8 µM, 8 nM Ephrin-A5, Figure 1C), 0.02 and 0.035 and 0.04; on EphA4 receptor (WCDD301 1.6 µM, 8 nM Ephrin-A5, Figure 1C), 0.012 and 0.009 and 0.01. The Glucagon-stimulated glucose output result in data set [2] (100 nM glucagon, 3 μM WCDD301) was “did not alter glucagon-stimulated glucose output”. Also, in data set [2] (WCDD301 +, Glucagon +), the “Glucose output from hepatocytes (Figure 6G)” value was 15.2 and 14.9 and 17.2 and 21.

These data come from PMC10906223 (JCI Insight, 2024).
